Experimental data published in paper PMC6112376, “Comprehensive Analyses and Prioritization of Tox21 10K Chemicals Affecting Mitochondrial Function by in-Depth Mechanistic Studies” (Environmental Health Perspectives, 2018).
Read-outs that look alike come from different tables or passages of the source.

Columns and labels:
HepG2 cells [1] = conditions: cited from earlier work; for IC50: read-out: MMP assays IC50 (µM), qHTS-HepG2
HepG2 cells [2] = assay: cells; conditions: Homo sapiens; for IC50: HepG2, read-out: MMP assays IC50 (µM) HepG2; for Emax: HepG2, read-out: MMP assays efficacy (%) HepG2
rat primary hepatocytes = assay: MMP assay in rat primary hepatocytes; conditions: for MMP assays IC50 (µM) Rat Hepatocytes / MMP assays efficacy (%) Rat Hepatocytes: mean ± SD of three experiments; for IC50: Rattus norvegicus, Hepatocyte, read-out: MMP assays IC50 (µM) Rat Hepatocytes

Row | Compound | MMP assays efficacy (%) qHTS-HepG2 (HepG2 cells [1]) [%] | IC50 (HepG2 cells [1]) [µM] | IC50 (HepG2 cells [2]) [µM] | Emax (HepG2 cells [2]) [%] | MMP assays IC50 (µM) Rat Hepatocytes (rat primary hepatocytes) | MMP assays efficacy (%) Rat Hepatocytes (rat primary hepatocytes) | IC50 (rat primary hepatocytes) [µM]
1 | CCCCCOC(=O)c1ccc(O)cc1 [Pentylparaben] | -119±16 | 8.74 ± 1.65 | 14.1 | 114 | inactive | inactive | –
2 | CCCOC(=O)c1cc(O)c(O)c(O)c1 [Propyl gallate] | -88±15 | 42.3 ± 3.93 | 35.5 | 97 | inactive | inactive | –
3 | Cc1c(C(=O)NN2CCCCC2)nn(-c2ccc(Cl)cc2Cl)c1-c1ccc(Cl)cc1 [Rimonabant] | -127±12 | 25.6 ± 1.67 | 17.3 | 73 | – | -53±1% | 17.4 ± 2.83
4 | Oc1c2ccccc2c2c3c(cccc13)N=N2 [SP600125] | -97±10 | 0.92 ± 0.14 | 1.55 | 105 | – | -82±45% | 21.1 ± 2.91
5 | CC(C)=CCOc1ccc(/C=C/C(=O)c2ccc(OCC=C(C)C)cc2OCC(=O)O)cc1 [Sofalcone] | -118±8 | 24.6 ± 1.67 | 17.3 | 92 | – | -65±23% | 19.5 ± 2.25
6 | CC(=O)Nc1ccc(S(=O)(=O)Nc2ccc([N+](=O)[O-])cc2)cc1 [Sulfanitran] | -54±11 | 26.6 ± 8.77 | 17.3 | 67 | – | -63±14% | 19.5 ± 2.25
7 | CCc1c(C(=O)NN2CCCCC2)nn(-c2ccc(Cl)cc2Cl)c1-c1ccc(Br)cc1 [Surinabant] | -97±6 | 33.1 ± 16.6 | 19.9 | 94 | – | -81±29% | 34.3 ± 22.5
8 | O=C(Nc1ncc([N+](=O)[O-])s1)c1cccs1 [Tenonitrozole] | -95±3 | 0.73 ± 0.12 | 0.56 | 99 | – | – | 0.68 ± 0.45
9 | CCCCCCCCCCCCCC[n+]1ccccc1 [Tetradecylpyridinium bromide] | -76±21 | 22.5 ± 4.1 | 17.8 | 102 | – | -99±17% | 33.5 ± 2.73
10 | Clc1ccc(Sc2cc(Cl)c(Cl)cc2Cl)cc1 [Tetrasul] | -77±0 | 1.77 ± 0.25 | 2.51 | 72 | inactive | inactive | –
11 | CCOC1O[C@H]([C@@H](COCc2ccccc2)OCc2ccccc2)[C@H](OCc2ccccc2)[C@H]1O (some centres unmarked) [Tribenoside] | -114±21 | 11.8 ± 0.8 | 11.7 | 61 | inactive | inactive | –
12 | CSc1nc2cc(Cl)c(Oc3cccc(Cl)c3Cl)cc2[nH]1 [Triclabendazole] | -114±15 | 1.84 ± 0.15 | 5.48 | 97 | – | -91±10% | 15.6 ± 2.52
13 | C(=C(c1ccccc1)c1ccccc1)c1ccccc1 [Triphenylethylene] | -88±31 | 35.7 ± 14.8 | 31.6 | 54 | – | -74±30% | 15.2 ± 11.5
14 | N#CC(C#N)=Cc1ccc(O)c(O)c1 [Tyrphostin 23] | -107±6 | 17.7 ± 6.46 | 17.3 | 103 | inactive | inactive | –
